“And” between values parts separate entries of the source, which are not always exact repeats. Equal values may be shown once.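 A five-concentration, 48-hour dose response in 96-well plates underlies each endpoint, interpolated linearly between surrounding concentrations. GI50 is the concentration that inhibits growth by half. TGI: concentration producing complete growth inhibition.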

Six compounds from PubChem BioAssay (NCI) can be followed below.

Among the test systems are DU-145 prostate; HCC-2998 colon; MCF7 breast; M14 melanoma; HCT-15 colon; CAKI-1 renal; OVCAR-8 ovarian; NCI-H23 lung; NCI-H460 lung; COLO 205 colon.
Experiment in all cases: growth of human tumour cells (NCI), 48 h

With `O=C(O)[C@@H]1CCCCN1Cc1cc2cc3c(cc2c2cc(OCc4ccccc4)ccc12)OCO3`, the GI50 was 5.19 µM with DU-145 prostate; 19.3 µM in the test on HCC-2998 colon; 2.05 µM in the test on MCF7 breast; 16.5 µM in the test on M14 melanoma; 3.27 µM with HCT-15 colon; 3.6 µM with CAKI-1 renal. Further, the GI50 is 6.62 µM in the test with OVCAR-8 ovarian, 21.6 µM in the test with NCI-H23 lung, 1.49 µM with NCI-H460 lung and 3.05 µM in the test on COLO 205 colon. Further, the TGI in the test on DU-145 prostate was greater than 100 µM; in the test on HCC-2998 colon, 33.6 µM; in the test with MCF7 breast, 16.5 µM; in the test on M14 melanoma it was 30.4 µM; in the test with HCT-15 colon, 13.7 µM; in the test on CAKI-1 renal, 33.7 µM. Further, the TGI in the test on OVCAR-8 ovarian came out at 29 µM; in the test with NCI-H23 lung, 45.7 µM; in the test with NCI-H460 lung it was 3.39 µM; in the test with COLO 205 colon, 15.8 µM.
Consider `C/C=C(\C)CC/C=C/CO[Si](C)(C)C(C)(C)C`, for which the TGI in the test with DU-145 prostate, with HCC-2998 colon, in the test with MCF7 breast, with M14 melanoma, with HCT-15 colon and in the test on CAKI-1 renal was greater than 100 µM in each case. Also, the TGI in the test with OVCAR-8 ovarian, in the test with NCI-H23 lung, with NCI-H460 lung and with COLO 205 colon was greater than 100 µM throughout.
Consider `Fc1ccc(-c2nn3ncccc3c2-c2ccnc(Nc3ccc4c(c3)OCCO4)n2)cc1`, for which the GI50 with DU-145 prostate is 6.26 µM; with HCC-2998 colon, 4.81 µM; in the test on MCF7 breast, 2.79 µM; in the test on M14 melanoma, 7.81 µM; in the test on HCT-15 colon it was 3.59 µM; in the test on CAKI-1 renal it was 0.891 µM. Besides, the GI50 in the test with OVCAR-8 ovarian was 6.15 µM; in the test on NCI-H23 lung it was 6.8 µM; with NCI-H460 lung, 5.64 µM; in the test with COLO 205 colon it was 1.42 µM. Further, the TGI in the test with DU-145 prostate was greater than 25 µM; in the test with HCC-2998 colon it was 10.1 µM; in the test with MCF7 breast, greater than 25 µM; in the test with M14 melanoma it was greater than 25 µM; in the test on HCT-15 colon, 19.4 µM; with CAKI-1 renal, greater than 17.2 µM. Further, the TGI in the test on OVCAR-8 ovarian was greater than 25 µM; in the test with NCI-H23 lung, greater than 25 µM; in the test with NCI-H460 lung, greater than 23.3 µM; in the test with COLO 205 colon, greater than 25 µM.
Consider `CON(C)C(=O)N1N=C(c2cc(F)ccc2F)SC1(CCCN)c1ccccc1` (centres undefined), for which the GI50 in the test on DU-145 prostate is 0.0336 µM and < 0.01 µM; in the test with HCC-2998 colon, less than 0.01 µM; with MCF7 breast it was less than 0.01 µM; in the test on M14 melanoma, less than 0.01 µM; in the test on HCT-15 colon it was 0.0485 µM and < 0.01 µM; in the test on CAKI-1 renal, 0.238 µM. The GI50 in the test with OVCAR-8 ovarian is 0.0266 µM and < 0.01 µM; in the test with NCI-H23 lung it was 0.0936 µM and < 0.01 µM; with NCI-H460 lung it was less than 0.01 µM; in the test on COLO 205 colon, less than 0.01 µM. The TGI with DU-145 prostate is 11.8 µM and 11.3 µM; with HCC-2998 colon, 4.34 µM and 4.41 µM; in the test on MCF7 breast, 11.6 µM and 11.5 µM; in the test on M14 melanoma, 11.2 µM and 4.38 µM; with HCT-15 colon it was 15.9 µM and 17.6 µM; with CAKI-1 renal it was 17.3 µM and 18.1 µM. The TGI in the test with OVCAR-8 ovarian was 18.9 µM and 19.8 µM; with NCI-H23 lung, 21.9 µM and 14.8 µM; with NCI-H460 lung, 12 µM and 11.8 µM.
Consider `COc1cc2c(c(OC)c1OC)C(=O)[C@@H]1c3ccc([N+](=O)[O-])cc3C(=O)N(CCCBr)[C@H]21`, for which the GI50 in the test with DU-145 prostate is 14.6 µM; with HCC-2998 colon, 1.17 µM; in the test on MCF7 breast, 4.71 µM; with M14 melanoma it was 12.1 µM; in the test on HCT-15 colon it was 20.3 µM; in the test on CAKI-1 renal, 2 µM. Moreover, the GI50 in the test with OVCAR-8 ovarian was 10.2 µM; in the test with NCI-H23 lung, 15.4 µM; in the test with NCI-H460 lung, 8.15 µM; in the test on COLO 205 colon it was 9.86 µM. The TGI in the test on DU-145 prostate was 53.2 µM; with HCC-2998 colon, 7.51 µM; with MCF7 breast, greater than 100 µM; with M14 melanoma, 33.5 µM; with HCT-15 colon it was greater than 100 µM; in the test with CAKI-1 renal, 14.2 µM. For the same compound, the TGI was 37.6 µM in the test with OVCAR-8 ovarian, 35.8 µM in the test with NCI-H23 lung, 62.2 µM with NCI-H460 lung and greater than 100 µM in the test on COLO 205 colon.
Consider `O=C(/C=C\n1cnc(-c2cc(C(F)(F)F)cc(C(F)(F)F)c2)n1)NNc1cnccn1`, for which the GI50 is 0.271 µM with DU-145 prostate; 0.112 µM with HCC-2998 colon; 0.0329 µM in the test on MCF7 breast; 0.311 µM with M14 melanoma; 0.098 µM in the test on HCT-15 colon; 0.0414 µM with CAKI-1 renal. Moreover, the GI50 is 0.0769 µM with OVCAR-8 ovarian, 0.0661 µM in the test with NCI-H23 lung, 0.037 µM with NCI-H460 lung and 0.0515 µM in the test on COLO 205 colon. Further, the TGI in the test with DU-145 prostate is 12.6 µM; in the test on HCC-2998 colon, 1.93 µM; in the test with MCF7 breast it was 11.5 µM; in the test with M14 melanoma, 9.04 µM; in the test with HCT-15 colon, 13.4 µM; with CAKI-1 renal, 12 µM. Besides, the TGI in the test on OVCAR-8 ovarian came out at 36.5 µM; in the test with NCI-H23 lung it was 15.7 µM; in the test with NCI-H460 lung, 3.14 µM; with COLO 205 colon it was 5.28 µM.
